Results as given in publication PMC8151276, “An Integrated Approach toward NanoBRET Tracers for Analysis of GPCR Ligand Engagement” (Molecules, 2021).

Molecular target: T1, NPFFR1 (Homo sapiens, UniProt Q9GZQ6)
T1 construct: purchased Promega (in-house HiBiT-GPCR construct library, NanoBRET)
Experiment: NanoBRET screen HiBiT-NPFFR1 in HEK293
Assay type: binding
Protocol: Each tracer candidate was screened across the entire library of HiBiT-GPCR constructs using NanoBRET as the detection modality. As depicted in Figure 4A, the specificity of interactions was evaluated through decrease in BRET due to competitive displacement of a bound tracer by excess parental compound. Each tracer was analyzed for binding to each HiBiT-GPCR fusion in the absence and in the presence of competing parental compound. Briefly, HEK293 cells were transfected with HiBiT-GPCR constructs diluted into promoterless DNA to reduce expression and maximize translocation to the cell surface. Each tracer candidate was then screened at concentrations of 1 μM and 0.1 μM across cells expressing these fusions. Cells were treated for 1.5 h with tracer either alone or in the presence of 20 μM competing parental compound (i.e., control). BRET was measured upon addition of purified LgBiT and subsequent complementation with HiBiT genetically fused to a GPCR. The specificity of interactions was assessed through a decrease in BRET signal due to competitive displacement of the bound tracer. To further gauge the robustness of these interactions, the fold response over the control (i.e., BRETtracer/BRETcontrol) was calculated. We chose a 1.5-fold response, which translates to ≥7-fold signal over noise as the minimal threshold required to score an interaction as positive.
HiBiT-GPCR DNA constructs were diluted in 10 mM Tris pH 8 to a final concentration of 0.01 μg/μL, arrayed in 96-well plates and stored at −20 °C. For transfection, HEK293 cells were suspended in Opti-MEM (without phenol red) supplemented with 2% fetal bovine serum (Seradigm) and 100 units/mL penicillin–streptomycin (Gibco) at a final concentration of 220,000 cells/mL and dispensed into white 96-well plates at 90 μL/well. Subsequent transfections and screens were carried using an Agilent Bravo Automated Liquid Handling Platform. First, the 96-well HiBiT DNA arrays were diluted 25-fold in Opti-MEM (without serum or phenol red) to a final concentration of 0.0004 μg/μL and 20 μL of the diluted DNAs were transferred into new 96-well plates. Next, promoterless carrier DNA (1 μg/μL) was diluted 25-fold (0.04 μg/μL) and then dispensed into the diluted arrays at 20 μL/well. Following brief mixing, Viafect transfection reagent (Promega) diluted 16-fold into Opti-MEM was dispensed into the plates at 40 μL/well. After mixing by pipetting, plates were incubated for 10 min on the pipetting station deck. The DNA-transfection reagent complexes were then added to plates containing cells. To facilitate the screen, 10 μL of DNA-transfection reagent complexes were added in duplicates to the top 4 and bottom 4 rows, resulting in two identical 48-well arrays per plate. Plates with transfected cells were incubated for 18–20 h at 37 °C/5% CO2. A screen of each tracer across the entire library using two different concentrations requires duplicate plates of transfected cells. Depending on the number of tracers being screened, transfections can be scaled up using the same ratios. The next day, for each tracer, four 20× screening solutions in tracer dilution buffer (Promega) were prepared: two duplicates at final concentration of 20 μM and two duplicates at a final concentration of 2 μM. […] The four resulting solutions were diluted 4-fold in Opti-MEM without serum or phenol red to generate 5× solutions (5 µM and 0.5 µM tracer +/− 100 μM competing compound). To screen the library, a BioTek MultiFlo FX liquid dispenser was used to dispense 22.5 µL of tracer solution to the top 4 rows and 22.5 µL tracer + competing compound solution to the 4 bottom rows. Plates were briefly mixed on an orbital shaker and incubated for 1.5 h at room temperature. […] Plates were briefly mixed on an orbital shaker and incubated for 15 min to allow complementation.

T1 sequence (Q9GZQ6 whole entry): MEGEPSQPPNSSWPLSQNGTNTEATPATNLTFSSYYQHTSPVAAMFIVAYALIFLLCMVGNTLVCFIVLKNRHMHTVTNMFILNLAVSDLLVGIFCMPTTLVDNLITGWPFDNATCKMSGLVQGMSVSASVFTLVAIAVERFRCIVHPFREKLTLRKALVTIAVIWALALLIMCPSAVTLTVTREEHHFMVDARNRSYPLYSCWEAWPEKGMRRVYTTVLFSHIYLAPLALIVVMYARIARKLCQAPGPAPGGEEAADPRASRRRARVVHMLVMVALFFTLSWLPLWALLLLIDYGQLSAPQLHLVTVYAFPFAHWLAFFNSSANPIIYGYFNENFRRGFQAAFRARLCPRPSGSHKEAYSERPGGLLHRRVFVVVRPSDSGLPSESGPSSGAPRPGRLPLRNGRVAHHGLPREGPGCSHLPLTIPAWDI

SMILES | NanoBRET Fold Response (NPFFR1, tracer 0.1μM) | NanoBRET Fold Response (NPFFR1, tracer 1μM) | also measured
CCOC(=O)c1cc(C#N)c(N2CCC(C(=O)NS(=O)(=O)Cc3ccccc3/C=C/C(=O)NCCNC(=O)CCc3ccc4n3[B-](F)(F)[N+]3=C(c5ccc[nH]5)C=CC3=C4)CC2)nc1C [AZD1283-1-NB590] |  |  | NanoBRET Fold Response (NPFFR1, 0.1μM): 1.02; NanoBRET Fold Response (NPFFR1, 1μM): 0.99
N#CN=C(NCCCOc1cccc(CN2CCCCC2)c1)NCCNC(=O)CCOCCOCCOCCOCCNC(=O)CCc1ccc2n1[B-](F)(F)[N+]1=C(c3ccc[nH]3)C=CC1=C2 [Aminopotentidine-2-NB590] | 0.96 | 1.02 | 
CN(C)CCC=C1c2ccccc2CCc2ccc(C(=O)NCCNC(=O)CCOCCOCCOCCOCCNC(=O)CCc3ccc4n3[B-](F)(F)[N+]3=C(c5ccc[nH]5)C=CC3=C4)cc21 [Amitriptyline-b-2-NB590] |  |  | NanoBRET Fold Response (tracer at 0.1μM): 0.98
COc1ccc2c(n1)c(CCNC(C)=O)cn2CCNC(=O)CCc1ccc2n1[B-](F)(F)[N+]1=C(c3ccc[nH]3)C=CC1=C2 [Azamelatonin-1-NB590] |  |  | NanoBRET Fold Response (0.1μM tracer): 0.99; NanoBRET Fold Response (1μM tracer): 0.91
COc1ccc2[nH]c(-c3ccc(CNC(=O)CCOCCOCCOCCOCCNC(=O)CCc4ccc5n4[B-](F)(F)[N+]4=C(c6ccc[nH]6)C=CC4=C5)cc3)c(CCNC(C)=O)c2n1 [AzomelatoninICO9-2-NB590] |  |  | NanoBRET Fold Response (1μM tracer): 1.01
O=C(CCOCCOCCOCCOCCNC(=O)CCc1ccc2n1[B-](F)(F)[N+]1=C(c3ccc[nH]3)C=CC1=C2)NCCCN1CCN(C2=Nc3cc(Cl)ccc3Nc3ccccc32)CC1 [Clozapine-a-2-NB590] |  |  | NanoBRET Fold Response (NPFFR1, 1μM tracer): 0.98
CN1CCN(C2=Nc3cc(Cl)ccc3Nc3ccc(CNC(=O)CCOCCOCCOCCOCCNC(=O)CCc4ccc5n4[B-](F)(F)[N+]4=C(c6ccc[nH]6)C=CC4=C5)cc32)CC1 [Clozapine-b-2-NB590] |  |  | NanoBRET Fold Response (NPFFR1, 0.1μM tracer): 1.00; NanoBRET Fold Response (NPFFR1, 1μM tracer): 1.02
CN1CCN(C2=Nc3cc(Cl)ccc3N(CC(=O)NCCOCCOCCOCCOCCNC(=O)CCc3ccc4n3[B-](F)(F)[N+]3=C(c5ccc[nH]5)C=CC3=C4)c3ccccc32)CC1 [Clozapine-c-2-NB590] |  |  | NanoBRET Fold Response (NPFFR1, 0.1μM tracer): 1.02; NanoBRET Fold Response (NPFFR1, 1μM tracer): 1.00
O=C(CCOCCOCCOCCOCCNC(=O)CCc1ccc2n1[B-](F)(F)[N+]1=C(c3ccc[nH]3)C=CC1=C2)NCCCN1CCN(C2=Nc3ccccc3Oc3ccc(Cl)cc32)CC1 [Loxapine-a-2-NB590] | 0.98 | 1.00 | 
COc1ccccc1N1CCN(CCCCN2C(=O)c3ccc(CNC(=O)CCOCCOCCOCCOCCNC(=O)CCc4ccc5n4[B-](F)(F)[N+]4=C(c6ccc[nH]6)C=CC4=C5)cc3C2=O)CC1 [NAN-190-2-NB590] | 0.95 | 1.02 | 
COc1ccccc1N1CCN(CCCCN2C(=O)c3ccc(CNC(=O)CCOCCNC(=O)c4ccc(CNC(=O)CCc5ccc6n5[B-](F)(F)[N+]5=C(c7ccc[nH]7)C=CC5=C6)cc4)cc3C2=O)CC1 [NAN-190-3-NB590] | 1.06 | 0.96 | 
O=C(CCc1ccc2n1[B-](F)(F)[N+]1=C(c3ccc[nH]3)C=CC1=C2)NCc1ccc(C(=O)NCCOCCC(=O)N[C@@H]2CC[C@@]3(O)[C@H]4Cc5ccc(O)c6c5[C@@]3(CCN4CC3CC3)[C@H]2O6)cc1 [Naltrexone-3-NB590] | 0.94 | 1.15 | 
Cc1cc2c(s1)Nc1ccccc1N=C2N1CCN(CCCNC(=O)CCOCCOCCOCCOCCNC(=O)CCc2ccc3n2[B-](F)(F)[N+]2=C(c4ccc[nH]4)C=CC2=C3)CC1 [Olanzapine-a-2-NB590] | 0.96 |  | 
O=C(CCc1ccc2n1[B-](F)(F)[N+]1=C(c3ccc[nH]3)C=CC1=C2)NCc1ccc(C(=O)NCCOCCOCCNCC(O)COc2cccc3ccccc23)cc1 (stereo not drawn) [Propranolol-3-NB590] |  |  | NanoBRET Fold Response (NPFFR1, 0.1μM): 1.01; NanoBRET Fold Response (NPFFR1, 1μM): 0.99
O=C(CCc1ccc2n1[B-](F)(F)[N+]1=C(c3ccc[nH]3)C=CC1=C2)NCCOCCOCCNC(=O)OCCOCCN1CCN(C2=Nc3ccccc3Sc3ccccc32)CC1 [Quetiapine-a-2-NB590] | 0.99 | 1.00 | 
Cc1nc2n(c(=O)c1CCN1CCC(c3noc4cc(F)ccc34)CC1)CCCC2OC(=O)NCCOCCOCCOCCOCCNC(=O)CCc1ccc2n1[B-](F)(F)[N+]1=C(c3ccc[nH]3)C=CC1=C2 (stereo not drawn) [Risperidone-2-NB590] | 0.97 | 0.95 | 
CC(C)N(CC[C@H](c1ccccc1)c1cc(CCNC(=O)CCOCCOCCOCCOCCNC(=O)CCc2ccc3n2[B-](F)(F)[N+]2=C(c4ccc[nH]4)C=CC2=C3)ccc1O)C(C)C [Tolterodine-2-NB590] | 1.19 |  | 
CC(C)N(CC[C@H](c1ccccc1)c1cc(CCNC(=O)c2ccc(CNC(=O)CCc3ccc4n3[B-](F)(F)[N+]3=C(c5ccc[nH]5)C=CC3=C4)cc2)ccc1O)C(C)C [Tolterodine-BZ-NB590] | 0.96 | 1.02 | 
CCCn1c(=O)c2[nH]c(-c3ccc(OCC(=O)NCCNC(=O)CCOCCNC(=O)c4ccc(CNC(=O)CCc5ccc6n5[B-](F)(F)[N+]5=C(c7ccc[nH]7)C=CC5=C6)cc4)cc3)nc2n(CCC)c1=O [XAC-3-NB590] | 0.99 | 1.01 | 
